# In patent US20040034216A1, “3-Nitrogen-6,7-dioxygen steroids and uses related thereto” (priority 2003, published 2004):
# pIC50: −log10 of the molar value. Counter-ions that a name gives are not always drawn. Like-named read-outs stand apart in the source and are kept apart here.
# How the values were obtained:
# [1] = tested on: Rat Mast Cell Line (RBL-2H3); experiment: Antigen-induced release of hexosaminidase from a rat mast cell line (RBL-2H3); assay type: cell-based; conditions: tested at 0.3, 3, 10 and 30 μM, read-out: Hex IC50
# Experimental: The anti-allergic effects of a compound of the present invention was evaluated by measuring its effect on antigen-induced secretion of hexosaminidase from a passively sensitized rat mast cell line. The ability of a test compound to inhibit the release of mast cell granule contents, e.g., histamine and hexosaminidase, is indicative of the anti-allergy and/or anti-asthma activity of the compound. Hexosaminidase is released from the mast cell granule along with histamine and other mediators during antigen challenge. The test is performed as follows.
# RBL-2H3 cells are grown in culture and passively sensitized for 1 hour at 37° C. to dinitrophenol (DNP) using anti-human-DNP (IgE). Cells are incubated with test compound for 30 minutes at 37° C. and stimulated with 0.5 μg/ml DNP-HSA (antigen) for 30 minutes. Aliquots of the supernatant are removed and used to measure the amount of hexosaminidase released during challenge with the antigen. The amount of hexosaminidase present in the supernatant is determined colorimetrically by monitoring the enzymatic metabolism of p-nitrophenyl-N-acetyl-β-D-glucosaminide (p-NAG) over a period of 60 minutes at 405 nm. The effect of each test compound is determined as a percentage of the antigen-induced response (minus background release) obtained in the presence of DMSO alone. These values are used to determine the degrees of inhibition of antigen-induced hexosaminidase release from the cells.
# Jurkat clone E6.1 cells = experiment: Antigen-induced calcium flux in anti-CD3 stimulated Jurkat cells (Fura 2AM); assay type: cell-based; conditions: anti-CD3 mAb stimulated Jurkat clone E6.1 cells; for inhibition at 20 µM: Homo sapiens
# From the text: Elevation of cytoplasmic calcium concentration is a common and crucial event which follows the activation of many types of cell surface receptors. Increases in intracellular calcium that occur following agonist activation of inositol lipid hydrolysis are the results of calcium release from the endoplasmic reticulum and the influx of calcium through the plasma membrane. Increases in cytosolic calcium concentration are involved in many important cellular responses in the inflammatory process including adhesion, motility, gene expression, proliferation, and degranulation. Changes in intracellular calcium concentrations can affect both short and long term cellular responses. An assay method to evaluate a test compound's impact on calcium flux is provided as follows.
# The resulting supernatants are discarded and each pellet is washed in 10 mL HBSS. Cell suspensions are accumulated and centrifuged for 5 minutes at 900 RPM to form a cell pellet. The resulting supernatant is discarded and the pellet is resuspended in HBSS at 1×10^7cells/mL. The cell suspension is transferred to a 20 mm petri dish and incubated at 37° C., 5% CO2 for 20 minutes.
# One volume of Fura 2AM is mixed to one volume of detergent Pluronic F127. Cells are labeled with 4 μL of probe solution to each mL of cell suspension. The petri dish is wrapped in aluminum foil to protect from light and placed on a plate shaker for 30 minutes at room temperature.
# The following steps are done in the laminar flow hood with the fluorescent lights turned off. The petri dish is removed from the shaker and the labeled cell suspension is transferred to a 15 mL conical tube and washed twice with HBSS as above. The cell pellet is resuspended in 12 mL HBSS and left wrapped in foil for 30 minutes at room temperature. The labeled cell suspension is aliquoted (100 μL/well) into a Dynex 96 well white opaque tissue culture plate. […] Selected compounds were tested for dose related activity. Test samples and activator (anti-CD3 mAb at final concentration of 4 μg/mL, PharMingen) are added manually (50 μL), such that the minimum time to acquire the first data point after stimulation is approximately 30 seconds. The calcium influx response to anti-CD3 mAb is measured as an “end point” assay. The entire plate is read in 100 seconds using a kinetic of 1 second per well.
# The plate is read before the addition of anti-CD3 to monitor non-specific effect of samples/drugs. Fluorescence emission is measured at 510 nm with excitation alternating between 340 and 380 every second using an excitation/emission filter pair. Data from these dual wavelengths are represented as a ratio of 2 excitations wavelengths. This ratio is independent of intracellular dye and cell concentrations, enabling real comparison between experiments.
# [2] = tested on: sensitized Brown Norway rats; experiment: Ovalbumin-induced accumulation of inflammatory cells in lung lavage fluid (allergen-induced lung inflammation); assay type: in vivo, rat; conditions: p.o., corn oil, lung lavage fluid
# Experimental: The ability of a compound to inhibit the allergen-induced accumulation of inflammatory cells such as eosinophils and neutrophils in the lavage fluid obtained from sensitized animals is indicative of that compound's anti-asthma activity. […] The test is conducted as follows.
# Male Brown Norway rats are sensitized to ovalbumin by single intraperitoneal injection of 1 mg ovalbumin adsorbed to 100 mg […] (alum) in 1 ml sterile saline (saline control rats receive only sterile saline) on day 1, and allowed to sensitize until day 21. […] Rats are challenged with 0.5% ovalbumin in saline generated using a Devillbis nebulizer for 60 min on day 21.
# Forty-eight hrs after challenge, animals are sacrificed with an overdose of intraperitoneally-delivered sodium pentobarbitol and the lungs are lavaged with cold 2×7 ml phosphate buffered saline. The recovered lavage fluid is placed on ice. The bronchoalveolar lavage fluid is centrifuged and the supernatant removed. The pellet is resuspended in phosphate buffered saline at 4° C. Cytospins are prepared and stained for differentiation and enumeration of cell types.
# Test compound was administered in 300 μl corn oil (Tables 7 and 8) or water (Table 9), which were used as vehicles. Control animals received 300 μl corn oil or water alone, i.e., no drug. […] A negative value in Table 7, 8, or 9 indicates an exacerbation of the effect over the control animal.
# [3] = Rattus norvegicus, RBL-2H3, inhibition of antigen (DNP-HSA)-induced hexosaminidase release
# [4] = Jurkat, read-out: Calcium (% inhibition at 20 μM), 20 μM
# [5] = 5 mg/kg/day for 4 days, relative to control animals
structure (smiles),measurement,setting,value
C=C1CCC2C3C(CC[C@]12C)[C@@]1(C)CCC(N)CC1[C@@H](O)[C@@H]3O (some centres unmarked) [Compound 54],pIC50,[1]; [3],4.79
"C[C@]12CC[C@@H](N)CC1[C@@H](O)[C@H](O)[C@@H]1[C@@H]2CC[C@]2(C)C(=O)CC[C@@H]12 (stereo partly drawn) [Compound 70, 3α-amino-6α,7β-dihydroxyandrostan-17-one acetic acid salt]",inhibition at 20 µM,"Jurkat clone E6.1 cells; read-out: Calcium (% inhibition at 20 μM), 20 μM",7%
CC=C1CCC2C3C(O)C(O)C4CC(NCCNCCO)CCC4(C)C3CCC12C.Cl.Cl (centres unmarked) [Compound 124],% inhibition of eosinophils,[2]; 1 mg/kg/day for 4 days,−55%
same,% inhibition of lymphocytes,[2]; 1 mg/kg/day for 4 days,−26%
same,% inhibition of neutrophils,[2]; 1 mg/kg/day for 4 days,−76%
same,Calcium (% inhibition at 20 μM),Jurkat clone E6.1 cells; 20 μM,21.0%
CC=C1CCC2C3C(O)C(O)C4CC(NCCCCC)CCC4(C)C3CCC12C.Cl (centres unmarked) [Compound 115],Calcium (% inhibition at 20 μM),Jurkat clone E6.1 cells; 20 μM,40.0%
C=C1CCC2C3C(CC[C@]12C)[C@@]1(C)CC[C@@H](NC(=O)Nc2ccccc2)CC1[C@@H](O)[C@@H]3O (some centres unmarked) [Compound 137],inhibition at 20 µM,Jurkat clone E6.1 cells; [4],13%
same,pIC50,[1]; [3],4.83
CCC1(C)CCC2=C1CCC1C2C(O)C(O)C2CC(NCc3ccccc3)CCC21C.Cl (centres unmarked) [Compound 147],% inhibition of eosinophils,[2]; 1 mg/kg/day for 4 days,40%
same,% inhibition of lymphocytes,[2]; 1 mg/kg/day for 4 days,36%
same,% inhibition of neutrophils,[2]; 1 mg/kg/day for 4 days,58%
CC(F)=C1CCC2C3C(CC[C@]12C)[C@@]1(C)CCC(N)CC1[C@@H](O)[C@@H]3O (some centres unmarked) [Compound 95],% inhibition of eosinophils,[2]; [5],14%
C=C1CCC2C3C(O)C(O)C4CC(NCc5cccc(C(F)(F)F)c5)CCC4(C)C3CCC12C.CC(=O)O (centres unmarked) [Compound 102],Calcium (% inhibition at 20 μM),Jurkat clone E6.1 cells; 20 μM,9.5%
CCC1(C)CCC2=C1CCC1C2C(O)C(O)C2CC(Nc3ccccc3)CCC21C.Cl (mixture of isomers) [Compound 144],Calcium (% inhibition at 20 μM),Jurkat clone E6.1 cells; 20 μM,13.0%
C=C1CCC2C3C(CC[C@]12C)[C@@]1(C)CC[C@@H](NC(=O)NCCC)CC1[C@@H](O)[C@@H]3O (some centres unmarked) [Compound 138],% inhibition of eosinophils,[2]; 1 mg/kg/day for 4 days,−52%
same,% inhibition of lymphocytes,[2]; 1 mg/kg/day for 4 days,33%
same,% inhibition of neutrophils,[2]; 1 mg/kg/day for 4 days,35%
same,Calcium (% inhibition at 20 μM),Jurkat clone E6.1 cells; 20 μM,9.0%
CC=C1CCC2C3C(CC[C@]12C)[C@@]1(C)CCC(N)CC1[C@@H](O)[C@@H]3O (some centres unmarked) [Compound 49],% inhibition of eosinophils,[2]; [5],52%
CC=C1CCC2C3C(O)C(O)C4CC(NCCN(C)C)CCC4(C)C3CCC12C.Cl.Cl (centres unmarked) [Compound 120],Calcium (% inhibition at 20 μM),Jurkat clone E6.1 cells; 20 μM,44.0%
C=C1CCC2C3C(CC[C@]12C)[C@@]1(C)CC[C@@H](NCc2ccc(C(C)C)cc2)CC1[C@@H](O)[C@@H]3O (some centres unmarked) [Compound 100],inhibition at 20 µM,Jurkat clone E6.1 cells; [4],33.2%
same,pIC50,[1]; [3],4.74
COC1C(OC)C2CC(N)CCC2(C)C2CCC3=C(CCC3(C)C)C12.Cl (centres unmarked) [Compound 148],Calcium (% inhibition at 20 μM),Jurkat clone E6.1 cells; 20 μM,6.6%
CC=C1CCC2C3C(O)C(O)C4CC(NCCNCCC)CCC4(C)C3CCC12C (centres unmarked) [Compound 119],pIC50,[1]; inhibition of antigen (DNP-HSA)-induced hexosaminidase release,5.21
C=C1CCC2C3C(O)C(O)C4CC(NCc5cccnc5)CCC4(C)C3CCC12C.Cl.Cl (centres unmarked) [Compound 107],% inhibition of lymphocytes,[2]; 1 mg/kg/day for 4 days,−28%
same,% inhibition of neutrophils,[2]; 1 mg/kg/day for 4 days,23%
C=C1CCC2C3C(CC[C@]12C)[C@@]1(C)CCC(N)CC1[C@@H](OC)[C@@H]3OC (some centres unmarked) [Compound 78],inhibition at 20 µM,Jurkat clone E6.1 cells; [4],5.3%
same,pIC50,[1]; [3],4.70
C=C1CCC2C3C(CC[C@]12C)[C@@]1(C)CC[C@@H](NS(=O)(=O)C(C)C)CC1[C@@H](O)[C@@H]3O (some centres unmarked) [Compound 133],% inhibition of eosinophils,[2]; 1 mg/kg/day for 4 days,−43%
same,% inhibition of lymphocytes,[2]; 1 mg/kg/day for 4 days,28%
same,% inhibition of neutrophils,[2]; 1 mg/kg/day for 4 days,40%
CC=C1CCC2C3C(O)C(O)C4CC(Nc5cccc(C)c5)CCC4(C)C3CCC12C.Cl (centres unmarked) [Compound 125],Calcium (% inhibition at 20 μM),Jurkat clone E6.1 cells; 20 μM,5.7%
C=C1CCC2C3C(O)C(O)C4CC(NCc5cccc([N+](=O)[O-])c5)CCC4(C)C3CCC12C (centres unmarked) [Compound 106],Calcium (% inhibition at 20 μM),Jurkat clone E6.1 cells; 20 μM,8.1%
C[C@]12CCC3C(C1CCC2O)[C@@H](O)[C@H](O)C1CC(N)CC[C@]31C (some centres unmarked) [Compound 72],inhibition at 20 µM,Jurkat clone E6.1 cells; [4],10.3%
CC(=O)O.CC=C1CCC2C3C(O)C(O)C4CC(NC5CCCC5)CCC4(C)C3CCC12C (centres unmarked) [Compound 116],Calcium (% inhibition at 20 μM),Jurkat clone E6.1 cells; 20 μM,60.9%
COc1ccc(CNC2CCC3(C)C(C2)C(O)C(O)C2C4=C(CCC23)C(C)(C)CC4)cc1OC.Cl (centres unmarked) [Compound 142],% inhibition of lymphocytes,[2]; 1 mg/kg/day for 4 days,−42%
same,% inhibition of neutrophils,[2]; 1 mg/kg/day for 4 days,−1%
C/C=C1/CCC2C3C(CC[C@]12C)[C@@]1(C)CCC(NC)CC1[C@@H](O)[C@@H]3O (some centres unmarked) [Compound 113],inhibition at 20 µM,Jurkat clone E6.1 cells; [4],45%
same,pIC50,[1]; [3],5.01
CCC1(C)CCC2=C1CCC1C2C(O)C(O)C2CC(Nc3cccc(C(F)(F)F)c3)CCC21C.Cl (mixture of isomers) [Compound 145],Calcium (% inhibition at 20 μM),Jurkat clone E6.1 cells; 20 μM,−0.2%
COC(=O)C=C1CCC2C3C(CC[C@]12C)[C@@]1(C)CCC(N)CC1[C@@H](O)[C@@H]3O (some centres unmarked) [Compound 69],inhibition at 20 µM,Jurkat clone E6.1 cells; [4],11.2%
same,pIC50,[1]; [3],4.67
CC=C1CCC2C3C(O)C(O)C4CC(Nc5ccc(O)cc5)CCC4(C)C3CCC12C.Cl (centres unmarked) [Compound 126],Calcium (% inhibition at 20 μM),Jurkat clone E6.1 cells; 20 μM,45.0%
C/C=C1/CCC2C3C(CC[C@]12C)[C@@]1(C)CCC(N2CCCCC2)CC1[C@@H](O)[C@@H]3O (some centres unmarked) [Compound 110],inhibition at 20 µM,Jurkat clone E6.1 cells; [4],39.7%
same,pIC50,[1]; [3],4.96
CCC1CCC2C3C(CC[C@]12C)[C@@]1(C)CCC(N)CC1[C@@H](O)[C@@H]3O (some centres unmarked) [Compound 97],% inhibition of eosinophils,[2]; [5],40%
C=C1CCC2C3C(CC[C@]12C)[C@@]1(C)CC[C@@H](NC(C)=O)CC1[C@@H](O)[C@@H]3O (some centres unmarked) [Compound 131],inhibition at 20 µM,Jurkat clone E6.1 cells; [4],9.9%
same,pIC50,[1]; [3],4.85
CCC1(C)CCC2=C1CCC1C2C(O)C(O)C2CC(NCc3ccccc3)CCC21C.Cl (centres unmarked) [Compound 146],% inhibition of eosinophils,[2]; 1 mg/kg/day for 4 days,8%
same,% inhibition of lymphocytes,[2]; 1 mg/kg/day for 4 days,−27%
same,% inhibition of neutrophils,[2]; 1 mg/kg/day for 4 days,24%
C=C1CCC2C3C(CC[C@]12C)[C@@]1(C)CCC(N)CC1[C@@H](O)[C@@H]3O (some centres unmarked) [Compound 53],% inhibition of eosinophils,[2]; [5],24%
